How the values were obtained:
[1] = tested on: wild type yeast cells; test: Mitochondrial morphology in yeast (secondary screen, mitochondrial targeted GFP); assay type: cell-based, S. cerevisiae; conditions: for % fragmented / % nets / % reticular: Structure Function Analysis of Compound A1, yeast; for % net-like structures: yeast, each at a concentration of 50 μM
Text: Secondary screens: Compounds identified in the primary growth assay-based screens outlined above are screened secondarily by examining their effects on mitochondrial morphology. We use the steady state structure of mitochondria as an indicator of the relative rates of mitochondrial fission and fusion in cells. […] Mitochondria are visualized using a mitochondrial targeted GFP that is efficiently targeted to both wild type and respiratory deficient mitochondria (Tieu et al., 2000 The Journal of Cell Biology 151, 353-365.).
All compounds identified in the primary growth assay-based screens outlined above were screened secondarily by examining their effects on mitochondrial morphology in yeast. From previous work, we know that the steady state structure of mitochondria is an indicator of the relative rates of mitochondrial fission and fusion in cells (FIG. 7). Specifically, net-like structures indicate a block in fission, and fragmented mitochondrial structures indicate a block in fusion. […] In this secondary assay, small molecules were judged to be a hit if they produced a mutant phenotype in greater than 5% of the cell population.
To determine what structural features are important for the effects of mfisi-1 on mitochondrial fission, we identified structurally related molecules using a chemoinformatics approach. We utilized web-based ChemNavigator to search available public and commercial compound databases for small molecules that uniquely represented key structural features of mfisi-1. We tested a total of 15 small molecules related to mfisi-1 for their effects on mitochondrial morphology in yeast, each at a concentration of 50 μM (Table 3).

[2] = tested on: actin cytoskeleton and peripheral ER network; test: Actin cytoskeleton and peripheral ER network in yeast; assay type: cell-based; conditions: added after mfisi-1 treatment
Text: These structures are routinely examined in yeast mitochondrial morphology mutants as a test for the specificity of the mitochondrial phenotype.

[3] = tested on: mammalian COS cells; test: Mitochondrial fragmentation induced by staurosporine (STS) in COS cells; assay type: cell-based; conditions: COS cells stimulated with STS; mfisi-1 at 50 μM; n=100
Text: As indicated above, we observed that mfisi-1 causes changes in mitochondrial morphology in mammalian cells that are consistent with a block in mitochondrial fission. Thus, we examined the effects of mfisi-1 on mitochondrial fragmentation caused by the intrinsic apoptotic stimulus staurosporine (STS) in mammalian COS cells. […] These observations indicate that mfisi-1 retards apoptosis-stimulated Drp1-dependent mitochondrial fission.

Compound	% fragmented [1] [%]	% nets [1] [%]	% reticular [1] [%]	% net-like structures [1] [%]	other results
O=c1c2ccccc2nc(S)n1Cc1ccccc1	6	5	89		
O=c1c2ccccc2nc2n1CCS2 [2,3-Digydor-thiazolo[2,3-b]quinazolin-4-one]				0	
C=CCSc1nc2ccccc2c(=O)n1Cc1ccccc1 [2-Allylsulfanyl-3-benzyl-3H-quinazolin-4-one]				0	
C=CCSc1nc2ccccc2c(=O)n1-c1cccc(C)c1 [2-Allylsulfanyl-3-m-tolyl-3H-quinazolin-4-one]				1	
C=CCSc1nc2ccccc2c(=O)n1-c1ccccc1OC [2-Allylsulfanyl-(2-methoxy-phenyl)-3H-quinazolin-4-one]				0	
CCSc1nc2ccccc2c(=O)n1-c1cccc(C)c1 [2-Ethylsulfanyl-3-m-tolyl-3H-quinazolin-4-one]				2	
COc1ccccc1-n1c(S)nc2ccccc2c1=O [2-Mercapto-3-(2-methoxy-phenyl)-3H-quinazolin-4-one]				0	
Cc1cccc(-n2c(S)nc3ccccc3c2=O)c1 [2-Mercapto-3-m-tolyl-3H-quinazolin-4-one]				0	
Cc1ccccc1-n1c(S)nc2ccccc2c1=O [2-Mercapto-3-o-tolyl-3H-quinazolin-4-one]				30	
CSc1nc2ccccc2c(=O)n1-c1cccc(C)c1 [2-Methylsulfanyl-3-m-tolyl-3H-quinazolin-4-one]				0	
CSc1nc2ccccc2c(=O)n1Cc1ccccc1 [3-Benzyl-2-methylsulfanyl-3H-quinazolin-4-one]				5	
O=C(O)CSc1nc2ccccc2c(=O)n1-c1ccccc1 [(4-oxo-3-phenyl-3,4-dihydro-quinazolin-2-ylsulfanyl)-acetic acid]				5	
C/C1=C/C(=O)O[C@@H]2C[C@@H](CC[C@H](C)/C=C\C=C\CC1)O[C@@](O)([C@@H]1CSC(=O)N1)C2 [Latrunculin-A]					effect on actin cables and patches [2]: complete disruption of actin cables and patches; effect on mitochondrial nets [2]: caused mitochondrial nets to collapse and aggregate
CN[C@@H]1C[C@H]2O[C@@](C)([C@@H]1OC)n1c3ccccc3c3c4c(c5c6ccccc6n2c5c31)C(=O)NC4 [STS, staurosporine, reference compound]					% collapsed nets [3]: 0%; % fragmented [3]: 86%; % loose nets [3]: 0%; % reticular [3]: 14%
Cc1ccccc1-n1c(S)nc2ccccc2c1=O [drawing 8]	8	29	63		
COc1cc(-n2c(SC)nc3ccccc3c2=O)c(Cl)cc1Cl [drawing 9]	11	7	82		
O=C(O)CSc1nc2ccccc2c(=O)n1-c1ccccc1 [drawing 11]	8	5	87		
CCSc1nc2ccccc2c(=O)n1-c1cccc(C)c1 [drawing 12]	51	1	48		
C=CCSc1nc2ccccc2c(=O)n1-c1cccc(C)c1 [drawing 13]	8	1	91		
CSc1nc2ccccc2c(=O)n1-c1cccc(C)c1 [drawing 14]	6	0	94		
Cc1cccc(-n2c(S)nc3ccccc3c2=O)c1 [drawing 15]	0	0	100		
COc1ccccc1-n1c(S)nc2ccccc2c1=O [drawing 16]	32	0	68		
C=CCSc1nc2ccccc2c(=O)n1Cc1ccccc1 [drawing 17]	69	0	31		
C=CCSc1nc2ccccc2c(=O)n1-c1ccccc1OC [drawing 18]	3.2	0	96.8		
O=c1c2ccccc2nc2n1CCS2 [drawing 19]	7.3	0	92.7		
COc1cc(-n2c(SC)nc3cc(Cl)ccc3c2=O)c(Cl)cc1Cl [mfisi-1.1, 7-chloro-3-(2,4-Dichloro-5-methoxy-phenyl)-2-methylsulfanyl-3H-quinazolin-4-one]				7	
COc1cc(-n2c(SC)nc3ccccc3c2=O)c(Cl)cc1Cl [mfisi-1.2, 3-(2,4-Dichloro-5-methoxy-phenyl)-2-methylsulfanyl-3H-quinazolin-4-one]				7	
CSc1nc2cc(Cl)ccc2c(=O)n1-c1cc(OC(C)C)c(Cl)cc1Cl [mfisi-1.3, 7-chloro-3-(2,4-Dichloro-5-isopropoxy-phenyl)-2-methylsulfanyl-3H-quinazolin-4-one]				2	
COc1cc(-n2c(SC)nc3ccc(Cl)cc3c2=O)c(Cl)cc1Cl [mfisi-1.4, 6-chloro-3-(2,4-Dichloro-5-methoxy-phenyl)-2-methylsulfanyl-3H-quinazolin-4-one]				2	

Reference: US8450333B2, “Molecules for regulating cell death” (The Regents of The University of California, priority 2003, dated 2013)
